From publication PMC3458020, “High-Throughput Screening for Novel Inhibitors of Neisseria gonorrhoeae Penicillin-Binding Protein 2” (PLoS ONE, 2012)
Where two headings read alike, the source gives them in different places.

Experiments:
[1] = biological target: T1, N. gonorrhoeae PBP 2 (Neisseria gonorrhoeae, UniProt P08149); experiment: FP-based concentration-response competition assay with Bocillin-FL; assay type: binding; conditions: 1 µM PBP 2, 1 µM Bocillin-FL
T1 construct: A soluble construct of wild-type PBP 2; made in house
Method: (§1) A soluble construct of wild-type PBP 2 from the penicillin-susceptible strain of N. gonorrhoeae FA19 was expressed and purified as described previously. Bocillin FL™ was obtained from Invitrogen Inc. (Carlsbad, CA). Penicillin G and γ-Globulins from bovine blood (BGG) were purchased from Sigma (St. Louis, MO). Prior to use, all reagents were diluted in an assay buffer comprising 50 mM potassium phosphate, pH 8, and 0.1 mg/ml BGG. The DIVERSet library of 50,080 small lead compounds from ChemBridge Corporation (San Diego, CA) was provided by the MUSC Drug Discovery Core (DDC). Three laboratory strains of N. gonorrhoeae–FA19 [28], penicillin-resistant FA6140 [29], and cephalosporin-intermediate resistant Ceph^I strain 35/02 [30]–were from the laboratory collection of R. Nicholas (UNC-Chapel Hill).
(§2) Measurements of fluorescence and FP were performed on a Spectramax M5 microplate reader (Molecular Devices, Sunnyvale, CA) with excitation and emission wavelengths of 485 nm and 520 nm, respectively, using a 515 nm filter to block residual excitation light and to minimize background interference. Black, shallow 384-well micro plates (ProxiPlate ™ –384 F Plus, PerkinElmer) were used to record data. To minimize the polarization effects from any fluorophore bound to the surface of the well, both excitation and emission data were recorded from the top of the well. Reading time was 100 ms per well. Fluorescence polarization was quantified in millipolarization units (mP) according to the equation, mP = 1000×[(Iv − G.Ih)/(Iv + G.Ih)], where Iv and Ih are parallel and perpendicular emission intensity measurements, respectively, corrected for background (buffer), and G is the instrument-dependent correction coefficient, defined as a ratio of sensitivities of the detection system for vertically and horizontally polarized light. Using the equation G = Iv/Ih and SoftMax® Pro Data Acquisition & Analysis Software (Molecular Devices, Sunnyvale, CA), the G-factor was determined with dilution series of Bocillin-FL-only (free tracer). The assay window (ΔmP) was defined as the difference between protein-tracer sample and free-tracer, i.e. ΔmP = mPs – mPfree, and is a measure of the maximum specific binding.
To evaluate the performance of the assay, steady-state concentration-response experiments were carried out using penicillin G in a competition assay with Bocillin-FL. Penicillin G (0.05–1000 µM) was mixed with 1 µM PBP 2 and 1 µM Bocillin-FL, followed by a 1 hr incubation. The positive (Pc) and negative (Nc) controls were defined as the FP of the Bocillin-FL - protein and of the free tracer, respectively, in the absence of penicillin G. The FP of the Bocillin-FL - protein at 100 µM penicillin G was defined as a displaced tracer control (Dc). Since DMSO was used as a solvent in the compound library, the effect of 10% DMSO on the FP-binding assay was also determined. Data points were normalized to the maximum specific binding, which defines complete saturation of PBP 2 by Bocillin-FL in the absence of penicillin G, and IC50 values were determined using non-linear regression analysis using GraphPad Prism version 4.00 for Windows (GraphPad Software, Inc, San Diego, CA).
For the FP experiments, 0.01–200 µM of each potential hit was incubated with PBP 2 (1 µM) for 1 h, followed by an additional 30 min incubation with 1 µM Bocillin-FL to detect the residual activity of the labeled penicillin binding. For the SDS-PAGE-based concentration-response experiments, PBP 2 (1 µM) in 50 mM sodium phosphate, 0.01% Triton X-100, pH 8 was incubated with 0.05–1000 µM of a compound for 1 h, followed by additional 15 min incubation with 10 µM Bocillin-FL. The reaction was stopped by mixing each sample with 5 X SDS-loading buffer, followed by boiling for 2 min. The samples were submitted to electrophoresis on 10% Mini-Protean TGX™ SDS-PAGE gels (Bio-Rad, Hercules, CA) to separate bound PBP 2 from free ligand. […]

[2] = biological target: T1, N. gonorrhoeae PBP 2; experiment: SDS-PAGE-based concentration-response assay with Bocillin-FL (0.01% Triton X-100); assay type: binding
Method: as §1
For the FP experiments, 0.01–200 µM of each potential hit was incubated with PBP 2 (1 µM) for 1 h, followed by an additional 30 min incubation with 1 µM Bocillin-FL to detect the residual activity of the labeled penicillin binding. For the SDS-PAGE-based concentration-response experiments, PBP 2 (1 µM) in 50 mM sodium phosphate, 0.01% Triton X-100, pH 8 was incubated with 0.05–1000 µM of a compound for 1 h, followed by additional 15 min incubation with 10 µM Bocillin-FL. The reaction was stopped by mixing each sample with 5 X SDS-loading buffer, followed by boiling for 2 min. The samples were submitted to electrophoresis on 10% Mini-Protean TGX™ SDS-PAGE gels (Bio-Rad, Hercules, CA) to separate bound PBP 2 from free ligand. At least two independent reactions were performed in duplicate at each concentration of an inhibitor. Gels were visualized by UV using a Kodak EDAS 290 imaging system (Scientific Imaging Systems Eastman Kodak, New Haven, CT, USA) and the protein bands were stained with Coomassie to verify equal loading. Densitometry was performed with ImageJ 1.37v program (National Institutes of Health, USA, http://rsb.info.nih.gov/ij/). In both methods, data points were normalized to the maximum value of the fluorescence intensity, which defines complete saturation of PBP 2 by Bocillin-FL in the absence of compound, and IC50 values of the inhibitors were defined as the concentration of a compound at 50% of the residual activity of Bocillin-FL and calculated using GraphPad Prism (see above).

[3] = tested on: N. gonorrhoeae FA6140; experiment: MIC on GCB agar plates, strain FA6140; assay type: cell-based; conditions: Neisseria gonorrhoeae
Method: (§3) Three strains of N. gonorrhoeae were used in susceptibility tests: 1) FA19, a penicillin-and cephalosporin-susceptible strain; 2) FA6140, a penicillin-resistant but cephalosporin-susceptible strain; and 3) 35/02, a penicillin-resistant and cephalosporin intermediate-resistant strain. The disc diffusion zone method was applied for preliminary testing of “hits” identified in the screening process. For this method, 100 µl of a cell suspension (∼1×10^7 bacteria) was added to 3 ml of GCB top agar (GC Broth containing 0.75% agar) at 50 °C, which was then added to GCB plates and allowed to solidify. Five µl of each compound (5 µg) was added separately to antibiotic susceptibility discs (BBL™, BD, Franklin Lakes, NJ), the discs were placed on top of plates, and the plates were incubated overnight in a 4% CO2 incubator at 37 °C. Those compounds that produced a visible zone of inhibition were then tested for their MICs on agar plates as described. Briefly, GCB agar plates containing increasing amounts of the tested compounds were spotted with 5×10^4 cells. The lowest concentration of the test compound that prevented growth of <5 colonies was defined as the MIC. These experiments were repeated three times, with each experiment producing similar results.

[4] = biological target: T1, N. gonorrhoeae PBP 2; experiment: FP high-throughput screening assay (Bocillin-FL binding to PBP 2); design: Inhibition (%) of Bocillin-FL binding to PBP 2: concentration or dose not given beside the values; conditions: four replicates; for Compound (mP) (mean ± SD): FP signal of individual compound with PBP 2 and Bocillin-FL; for Inhibition (%) of Bocillin-FL binding to PBP 2: individual compounds
Method: as §1, §2
HTS screening against the ChemBridge DIVERSet library was carried out under the following conditions: 1 µl of each compound (10% DMSO final) in duplicate was pre-incubated with 9 µl of PBP 2 for 1 h at room temperature, followed by additional 30 min incubation with 2 µl Bocillin-FL (0.87 µM PBP2∶ 1 µM Bocillin-FL final). In addition to samples with the compounds, each plate also contained 2 background wells (12 µl buffer only), and at least 4 wells each for Pc, Nc, and Dc reactions. All samples used for background measurements or controls included 10% DMSO. Initial screening was carried out with 10 mM cocktails of 10 compounds (giving a final concentration of 100 µM for each compound). […] The auto fluorescence of each compound was also tested individually.

[5] = tested on: N. gonorrhoeae 35/02; experiment: MIC on GCB agar plates, strain 35/02; assay type: cell-based; conditions: Neisseria gonorrhoeae
Method: as §3

[6] = tested on: N. gonorrhoeae FA19; experiment: MIC on GCB agar plates, strain FA19; assay type: cell-based; conditions: Neisseria gonorrhoeae
Method: as §3

[7] = biological target: T2, PBP 2 (Neisseria gonorrhoeae, UniProt P08149); experiment: Mass spectrometry test for covalent interaction with PBP 2; conditions: data not shown
T2 construct: A soluble construct of wild-type PBP 2; made in house

[8] = IC50, SDS-PAGE assay, 1 µM PBP 2, 10 µM Bocillin-FL, 0.01% Triton X-100
[9] = IC50 measured by SDS-PAGE, 0.01% Triton X-100, 1 µM PBP 2, 10 µM Bocillin-FL, two independent experiments
[10] = penicillin-resistant, cephalosporin-susceptible strain FA6140, read-out: MIC FA6140
[11] = penicillin-resistant, cephalosporin intermediate-resistant strain 35/02, read-out: MIC 35/02
[12] = penicillin- and cephalosporin-susceptible strain FA19, read-out: MIC FA19
[13] = IC50 measured by FP, 0.01–200 µM compound, four replicates

T1 sequence (P08149 44-581 limits assumed): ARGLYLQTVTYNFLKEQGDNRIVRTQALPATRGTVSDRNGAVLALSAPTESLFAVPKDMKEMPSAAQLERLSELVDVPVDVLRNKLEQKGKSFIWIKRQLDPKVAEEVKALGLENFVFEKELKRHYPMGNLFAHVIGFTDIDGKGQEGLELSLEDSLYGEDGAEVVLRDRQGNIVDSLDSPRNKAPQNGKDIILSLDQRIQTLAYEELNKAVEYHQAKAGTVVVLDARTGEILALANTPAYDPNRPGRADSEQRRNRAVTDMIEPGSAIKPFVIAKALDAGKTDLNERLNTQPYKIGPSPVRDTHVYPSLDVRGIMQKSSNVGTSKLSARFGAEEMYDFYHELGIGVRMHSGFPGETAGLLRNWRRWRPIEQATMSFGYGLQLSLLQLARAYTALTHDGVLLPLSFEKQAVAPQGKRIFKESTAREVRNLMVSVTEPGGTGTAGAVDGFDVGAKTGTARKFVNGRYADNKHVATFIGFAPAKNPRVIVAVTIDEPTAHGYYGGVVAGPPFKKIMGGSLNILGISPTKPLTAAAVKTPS
T2 sequence (P08149 44-581 limits assumed): as above

| Structure (SMILES) | IC50 ([1]; IC50 of penicillin G for PBP 2 (FP-based competition assay), with 10% DMSO) [µM] | IC50 ([1]; IC50 of penicillin G for PBP 2 (FP-based competition assay), without DMSO) [µM] | IC50 [2, 8] [µM] | IC50 [2, 9] [µM] | MIC [3, 10] [µg/mL] | Compound (mP) (mean ± SD) [4] | Inhibition (%) of Bocillin-FL binding to PBP 2 [4] [%] | MIC [5, 11] [µg/mL] | MIC [6, 12] [µg/mL] | IC50 [1, 13] [µM] | MIC ([3]; FA6140, read-out: MIC FA6140) [µg/mL] | MIC ([5]; 35/02, read-out: MIC 35/02) [µg/mL] | MIC ([6]; FA19, read-out: MIC FA19) [µg/mL] | IC50 ([2]; IC50, SDS-PAGE assay, same IC50 given in µg/ml) [µM] | MIC ([3]; strain FA6140, MIC given in µM, read-out: MIC FA6140) [µM] | Covalent interaction with PBP 2 (mass of the protein) [7] | MIC ([5]; strain 35/02, MIC given in µM, read-out: MIC 35/02) [µM] | MIC ([6]; strain FA19, MIC given in µM, read-out: MIC FA19) [µM] |
| --- | --- | --- | --- | --- | --- | --- | --- | --- | --- | --- | --- | --- | --- | --- | --- | --- | --- | --- |
| CC1(C)S[C@@H]2[C@H](NC(=O)Cc3ccccc3)C(=O)N2[C@H]1C(=O)O [Penicillin G, reference compound] | 1 | 1.4 |  |  |  |  |  |  |  |  |  |  |  |  |  |  |  |  |
| O=Cc1cc(Cc2ccccc2)cc([N+](=O)[O-])c1O [Compound 2] |  |  | 128 | 128 | 16 | 60.4±20.3 | 85.8 | 8 | 4 | 330 |  |  |  |  |  |  |  |  |
| CCc1ccc(O)c(/N=C/c2cc(I)cc(I)c2O)c1 [Compound 1] |  |  | 221 | 221 | 16 | 31.4±0.1 | 108.2 | 16 | 4 | 114 |  |  |  |  |  |  |  |  |
| O=c1sc2ccccc2c(O)c1C(c1ccccc1)c1c(O)c2ccccc2sc1=O [Compound 6] |  |  | 49 | 49.3 |  | 54.6±3.2 | 89.5 |  |  | 50.9 | 8 | 8 | 4 |  |  |  |  |  |
| CN1C(=O)/C(=C2\SC(=S)NC2=O)c2cc(Br)ccc21 [Compound 7] |  |  | 153 | 153 | 8 | 45.2±20.2 | 96.6 | 8 | 2 | 11.3 |  |  |  | 152 | 23.4 | no increase in mass of the protein was observed | 23.4 | 5.6 |
| CCc1ccc(S(=O)(=O)Nc2ccc(O)c3ccccc23)cc1 [Compound 5] |  |  | 56 | 56.3 | 16 | 43.3±0.8 | 97.6 | 16 | 8 | 52.1 |  |  |  |  |  |  |  |  |
| Sc1nnc(-c2ccc(Cl)cc2Cl)n1/N=C/C=C/c1ccco1 [Compound 3] |  |  | 898 |  | 32 | 65.7±12.4 | 81.8 | 32 | 16 | 129 |  |  |  |  |  |  |  |  |
| O=S(=O)(Nc1ccc(O)c2ccccc12)c1cccc2ccccc12 [Compound 4] |  |  | 50 | 50.2 | 16 | 35.6±2.1 | 105.4 | 16 | 16 | 51.4 |  |  |  |  |  |  |  |  |
